Where two headings read alike, the source gives them in different places.
What was measured:
[1] = system: bone fracture; test: Local VAC application without a carrier, fracture healing (preliminary data); format: in vivo; details: at the dosages tested
Excerpt: This evidence opens up many future applications to the use of VAC alone, or incorporated with a carrier as an option for fracture healing.

[2] = system: bone homeostasis; details: cited from earlier work
[3] = cited from earlier work
[4] = system: kidney and liver; details: VAC treatment; cited from earlier work

CC(=O)/C=C(/C)[O-].CC(=O)/C=C(/C)[O-].[O]=[V+2] [VAC, vanadyl acetylacetonate]
speed of bone healing versus saline controls [1]: more than twice as rapidly as saline controls
effect on bone parameters ([2]; diabetic rats): improved the ultimate strength, Tb,Th, MAR, and plasma osteocalcin
effect on bone parameters ([2]; normal rats): did not affect any bone parameters
tolerance / signs of toxicity ([3]; after several days): no signs of toxicity
tissue distribution / accumulation ([3]; widely distributed to all tissues): greatest accumulation was within femur tissue
function or structure of kidney and liver [4]: does not impair the function or structure of kidney and liver
